How the values were obtained:
[1] = target: T1, MDR1 (Homo sapiens, UniProt P08183); assay: Permeability in MDR1-MDCKII cells; format: in vitro ADME; conditions: dog, MDCK-MDR1, pH 7.4
T1 construct: host or cells: MDCKII (canine kidney) cells
Protocol: (§1) Exemplary compounds were tested for cell permeability in Caco-2, MDCKII-MDR1 and MDCKII-BCRP cell lines with efflux transporter engagement inferred from the efflux ratios determined. Procedures and results are described below. […] This feature of certain compounds is in part due to efflux transporter engagement. See, for instance, exemplary such compounds included in data tables below.
MDR1-MDCKII cells (obtained from Piet Borst at the Netherlands Cancer Institute) were seeded onto […] membranes (PET) in 96-well insert systems at 2.5×10^5 cells/mL until to 4-7 days for confluent cell monolayer formation.
Test compounds were diluted with the transport buffer (HBSS with 10 mM Hepes, pH7.4) from DMSO stock solution to a concentration of 2.00 μM (DMSO<1%) and applied to the apical or basolateral side of the cell monolayer. Permeation of the test compounds from A to B direction or B to A direction was determined in duplicate. Digoxin was tested at 10.0 μM from A to B direction or B to A direction as well, while nadolol and metoprolol were tested at […] in A to B direction in duplicate. The plate was incubated for 2.5 hours in CO2 incubator at 37±1° C., with 5% CO2 at saturated humidity without shaking. In addition, the efflux ratio of each compound was also determined. Test and reference compounds were quantified by LC-MS/MS analysis based on the peak area ratio of analyte/IS.
After transport assay, Lucifer yellow rejection assay are applied to determine the cell monolayer integrity. Buffers are removed from both apical and basolateral chambers, followed by the addition of 75 μL of 100 μM lucifer yellow in transport buffer and 250 μL transport buffer in apical and basolateral chambers, respectively. The plate is incubated for 30 minutes at 37° C. with 5% CO2 and saturated humidity without shaking. After 30 minutes incubation, 20 μL of lucifer yellow samples are taken from the apical sides, followed by the addition of 60 μL of Transport Buffer. And then 80 μL of lucifer yellow samples are taken from the basolateral sides. The relative fluorescence unit (RFU) of lucifer yellow is measured at 425/528 nm (excitation/emission) with an Envision plate reader.
The apparent permeability coefficient Papp (cm/s) was calculated using the equation: […]
Where dCr/dt is the cumulative concentration of compound in the receiver chamber as a function of time (μM/s); Vr is the solution volume in the receiver chamber (0.075 mL on the apical side, 0.25 mL on the basolateral side); A is the surface area for the transport, i.e. 0.0804 cm^2 for the area of the monolayer; C0 is the initial concentration in the donor chamber (μM). The efflux ratio was calculated using the equation: […]
(§2) Where Vd is the volume in the donor chambers (0.075 mL on the apical side, 0.25 mL on the basolateral side); Cd and Cr are the final concentrations of transport compound in donor and receiver chambers, respectively.

[2] = Caco-2 permeability assay; format: in vitro ADME; conditions: human
Protocol: as §1
The transport buffer in the study was HBSS with 10.0 mM HEPES at pH 7.40±0.05. Test compound was tested at 2.00 μM bi-directionally in duplicate. Digoxin was tested at 10.0 μM bi-directionally in duplicate, while nadolol and metoprolol were tested at 2.00 μM in A to B direction in duplicate. Final DMSO concentration was adjusted to less than 1%. The plate was incubated for 2 hours in CO2 incubator at 37±1° C., with 5% CO2 at saturated humidity without shaking. And all samples after mixed with acetonitrile containing internal standard were centrifuged at 3200×g for 10 min. For nadolol and metoprolol, 200 μL supernatant solution was diluted with 600 μL ultra-pure water for LC-MS/MS analysis. For digoxin and test compounds, 200 μL supernatant solution was diluted with 200 μL ultra-pure water for LC-MS/MS analysis. Concentrations of test and control compounds in starting solution, donor solution, and receiver solution were quantified by LC-MS/MS methodologies, using peak area ratio of analyte/internal standard.
After transport assay, lucifer yellow rejection assay was applied to determine the Caco-2 cell monolayer integrity.
[…] And permeation of lucifer yellow through the monolayer was measured to evaluate the cellular integrity.
The apparent permeability coefficient Papp (cm/s) was calculated using the equation: Papp=(dCr/dt)×Vr/(A×C0), where dCr/dt is the cumulative concentration of compound in the receiver chamber as a function of time (μM/s); Vr is the solution volume in the receiver chamber (0.075 mL on the apical side, 0.25 mL on the basolateral side); A is the surface area for the transport, i.e. 0.0804 cm^2 for the area of the monolayer; C0 is the initial concentration in the donor chamber (μM).
The efflux ratio was calculated using the equation: Efflux Ratio=Papp (BA)/Papp(AB).
as §2, with “Percent recovery was calculated using the equation: % Solution Recovery=100×[(Vr×Cr)+(Vd×Cd)]/(Vd×C0), where” for “Where”

T1 sequence (P08183 whole entry): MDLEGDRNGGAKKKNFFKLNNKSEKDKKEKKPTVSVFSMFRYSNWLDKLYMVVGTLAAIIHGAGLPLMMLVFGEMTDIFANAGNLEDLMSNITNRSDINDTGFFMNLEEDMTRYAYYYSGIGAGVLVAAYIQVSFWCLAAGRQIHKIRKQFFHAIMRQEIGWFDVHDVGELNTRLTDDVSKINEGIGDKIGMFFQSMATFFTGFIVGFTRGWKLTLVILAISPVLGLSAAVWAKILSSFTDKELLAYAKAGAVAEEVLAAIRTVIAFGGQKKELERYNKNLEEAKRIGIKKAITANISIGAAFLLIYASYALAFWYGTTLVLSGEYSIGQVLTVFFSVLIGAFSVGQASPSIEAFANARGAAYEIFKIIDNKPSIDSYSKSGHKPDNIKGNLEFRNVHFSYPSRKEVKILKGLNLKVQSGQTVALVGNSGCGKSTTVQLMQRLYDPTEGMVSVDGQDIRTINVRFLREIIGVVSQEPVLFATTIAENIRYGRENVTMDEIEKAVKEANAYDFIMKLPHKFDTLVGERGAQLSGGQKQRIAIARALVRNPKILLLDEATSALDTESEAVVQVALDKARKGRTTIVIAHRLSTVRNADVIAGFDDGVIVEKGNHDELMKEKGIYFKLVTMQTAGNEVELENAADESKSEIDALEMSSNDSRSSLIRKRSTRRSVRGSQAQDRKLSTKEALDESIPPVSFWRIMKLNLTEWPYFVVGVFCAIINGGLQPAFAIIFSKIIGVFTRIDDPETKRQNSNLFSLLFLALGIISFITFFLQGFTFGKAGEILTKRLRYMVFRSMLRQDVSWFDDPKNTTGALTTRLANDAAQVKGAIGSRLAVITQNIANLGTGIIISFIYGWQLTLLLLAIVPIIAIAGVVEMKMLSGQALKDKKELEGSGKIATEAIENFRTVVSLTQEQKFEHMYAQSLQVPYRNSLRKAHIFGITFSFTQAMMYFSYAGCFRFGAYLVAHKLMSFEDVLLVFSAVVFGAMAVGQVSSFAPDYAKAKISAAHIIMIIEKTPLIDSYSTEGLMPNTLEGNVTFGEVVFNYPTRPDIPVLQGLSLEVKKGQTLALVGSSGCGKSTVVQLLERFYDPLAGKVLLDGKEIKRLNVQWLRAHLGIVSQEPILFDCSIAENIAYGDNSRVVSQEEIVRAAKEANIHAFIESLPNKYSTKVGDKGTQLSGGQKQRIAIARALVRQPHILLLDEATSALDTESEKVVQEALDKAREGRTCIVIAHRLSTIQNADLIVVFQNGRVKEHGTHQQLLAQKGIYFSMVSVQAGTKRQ

Compound `Cc1ccc(-c2noc([C@H]3C[C@@H]3F)n2)cc1NC(=O)c1cnc2cc(COCC(C)(C)O)ccn12` [Compound I-71, N-[5-[5-[(1R,2S)-2-fluorocyclopropyl]-1,2,4-oxadiazol-3-yl]-2-methyl-phenyl]-7-[(2-hydroxy-2-methyl-propoxy)methyl]imidazo[1,2-a]pyridine-3-carboxamide] has an efflux ratio at 2.5 h, 2 μM ([1]; MDCKII-MDR1) of 5.15, a Papp A→B at 2.5 h, 2 μM ([1]; MDCKII-MDR1, apical to basolateral) of 5.94 ×10⁻⁶ cm/s and an efflux ratio at 2 h, 2 μM ([2]; Caco-2, pH 7.4) of 6.78. The Papp A→B at 2 h, 2 μM ([2]; pH 7.4, Caco-2, apical to basolateral) was 6.65 ×10⁻⁶ cm/s.
